Data on 14 molecules can be found in ChEMBL document CHEMBL1134134, “Novel tricyclic benzothiazolo[2,3-c]thiadiazine antagonists of the platelet ADP receptor (P2Y(12))” (Bioorg Med Chem Lett, 2001).

A value given as a limit tells only on which side of the number the result lay.

Experiment [1] concerns the target T1, P2Y purinoceptor 12 (Homo sapiens, UniProt Q9H244). The experiment in a line: Ability to displace [3H]2-MeS-ADP from human Purinergic receptor P2Y12. It counts as tissue-based.
The species named for another experiment is Homo sapiens. Description: Ability to inhibit platelet aggregation. The class given is functional, organism-based.
For experiment [2], the target named is T1, P2Y purinoceptor 12. The experiment in a line: Compound was evaluated for its ability to inhibit human Purinergic receptor P2Y12 expressed in Xenopus oocyte.

T1 sequence (Q9H244 whole entry): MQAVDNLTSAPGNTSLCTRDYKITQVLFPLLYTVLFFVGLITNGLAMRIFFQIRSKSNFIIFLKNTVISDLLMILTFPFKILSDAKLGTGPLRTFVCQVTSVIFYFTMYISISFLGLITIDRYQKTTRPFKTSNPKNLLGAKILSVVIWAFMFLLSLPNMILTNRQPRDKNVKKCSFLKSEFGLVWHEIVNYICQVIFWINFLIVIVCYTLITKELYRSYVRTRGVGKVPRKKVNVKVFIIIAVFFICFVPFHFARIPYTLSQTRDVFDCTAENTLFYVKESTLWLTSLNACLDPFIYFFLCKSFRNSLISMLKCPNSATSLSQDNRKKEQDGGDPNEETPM

A word on the IC50: it is the concentration that gives 50% inhibition. A lower IC50 goes with inhibition by little substance. Regarding `COc1cccc2c1N1C(O)=CS(=O)(=O)N=C1S2`, the figures for the IC50 on P2Y purinoceptor 12 [1] and in the experiment filed under Homo sapiens were 77 µM and greater than 120 µM, respectively.
With `O=C1/C(=C(\O)CS(=O)(=O)Nc2nc3ccc(-c4ccccc4)cc3s2)S(=O)(=O)N=C2Sc3cc(-c4ccccc4)ccc3N12`, the results for the IC50 at P2Y purinoceptor 12 [1] and in the experiment listed under Homo sapiens were greater than 50 µM and greater than 24 µM, respectively.
Regarding `O=C1/C(=C(\O)CS(=O)(=O)Nc2nc3ccccc3s2)S(=O)(=O)N=C2Sc3ccccc3N12`, the IC50 was 21 µM at P2Y purinoceptor 12 [1] and 26 µM in the experiment filed under Homo sapiens.
Regarding `O=C1/C(=C(\O)CS(=O)(=O)Nc2nc3ccc(C4CCCCC4)cc3s2)S(=O)(=O)N=C2Sc3cc(C4CCCCC4)ccc3N12`, the IC50 at P2Y purinoceptor 12 [1] and in the experiment filed under Homo sapiens was greater than 120 µM in each case.
Regarding `O=C1/C(=C(\O)CS(=O)(=O)Nc2nc3ccc(F)cc3s2)S(=O)(=O)N=C2Sc3cc(F)ccc3N12`, the IC50 is 37 µM on P2Y purinoceptor 12 [1] and greater than 120 µM in the experiment filed under Homo sapiens.
Turning to `COc1ccc2c(c1)SC1=NS(=O)(=O)C(C(=O)CS(=O)(=O)Nc3nc4ccc(OC)cc4s3)=C(O)N12`, in the experiment filed under Homo sapiens, the IC50 was found to be 1.5 µM.
Regarding `O=C1/C(=C(\O)CS(=O)(=O)Nc2nc3ccc(Cl)cc3s2)S(=O)(=O)N=C2Sc3cc(Cl)ccc3N12`, the IC50 on P2Y purinoceptor 12 [1] amounted to 35 µM; in the experiment filed under Homo sapiens, 64 µM.
The corresponding values for `O=C1/C(=C(\O)CS(=O)(=O)Nc2nc3ccc([N+](=O)[O-])cc3s2)S(=O)(=O)N=C2Sc3cc([N+](=O)[O-])ccc3N12` are 35 µM and 50 µM.
Consider `O=C1/C(=C(\O)CS(=O)(=O)Nc2nc3ccc(Oc4ccccc4)cc3s2)S(=O)(=O)N=C2Sc3cc(Oc4ccccc4)ccc3N12`, for which the IC50 is greater than 50 µM on P2Y purinoceptor 12 [1] and greater than 24 µM in the experiment filed under Homo sapiens.
Consider `Cc1ccc2c(c1)SC1=NS(=O)(=O)C(C(=O)CS(=O)(=O)Nc3nc4ccc(C)cc4s3)=C(O)N12`, for which, in the experiment filed under Homo sapiens, the IC50 is 9.5 µM.
For the molecule `O=S1(=O)C=C(O)N2C(=N1)Sc1cc(OC(F)(F)F)ccc12`, the IC50 is greater than 120 µM on P2Y purinoceptor 12 [1] and greater than 50 µM in the experiment listed under Homo sapiens.
`CCOc1ccc2c(c1)SC1=NS(=O)(=O)C(C(=O)CS(=O)(=O)Nc3nc4ccc(OCC)cc4s3)=C(O)N12`: the IC50 in the experiment filed under Homo sapiens was 0.18 µM; against P2Y purinoceptor 12 [2], 0.04 µM.
With `CS(=O)(=O)c1ccc2c(c1)SC1=NS(=O)(=O)C(C(=O)CS(=O)(=O)Nc3nc4ccc(S(C)(=O)=O)cc4s3)=C(O)N12`, the half-inhibitory concentration (IC50) on P2Y purinoceptor 12 [1] is 1.1 µM; in the experiment filed under Homo sapiens it was 2.9 µM.
Turning to `CCOC(=O)c1ccc2c(c1)SC1=NS(=O)(=O)C(C(=O)CS(=O)(=O)Nc3nc4ccc(C(=O)OCC)cc4s3)=C(O)N12`, the IC50 at P2Y purinoceptor 12 [1] amounted to 1.8 µM; in the experiment filed under Homo sapiens it was 0.8 µM.
